Laboratory results reported in patent EP3981864A1, “DETERGENT COMPOSITION” (priority 2020, dated 2022).

Molecular target: T1, Pisum sativum αDOX (SEQ ID NO: 4), fatty acid alpha-dioxygenase, Q5GQ66, N-terminal His-tag variant SEQ ID NO: 255 (Pisum sativum, UniProt Q5GQ66)
T1 construct: made in house; host or cells: Escherichia coli BL21 (DE3), pET30a
T1 sequence (Q5GQ66 1-643): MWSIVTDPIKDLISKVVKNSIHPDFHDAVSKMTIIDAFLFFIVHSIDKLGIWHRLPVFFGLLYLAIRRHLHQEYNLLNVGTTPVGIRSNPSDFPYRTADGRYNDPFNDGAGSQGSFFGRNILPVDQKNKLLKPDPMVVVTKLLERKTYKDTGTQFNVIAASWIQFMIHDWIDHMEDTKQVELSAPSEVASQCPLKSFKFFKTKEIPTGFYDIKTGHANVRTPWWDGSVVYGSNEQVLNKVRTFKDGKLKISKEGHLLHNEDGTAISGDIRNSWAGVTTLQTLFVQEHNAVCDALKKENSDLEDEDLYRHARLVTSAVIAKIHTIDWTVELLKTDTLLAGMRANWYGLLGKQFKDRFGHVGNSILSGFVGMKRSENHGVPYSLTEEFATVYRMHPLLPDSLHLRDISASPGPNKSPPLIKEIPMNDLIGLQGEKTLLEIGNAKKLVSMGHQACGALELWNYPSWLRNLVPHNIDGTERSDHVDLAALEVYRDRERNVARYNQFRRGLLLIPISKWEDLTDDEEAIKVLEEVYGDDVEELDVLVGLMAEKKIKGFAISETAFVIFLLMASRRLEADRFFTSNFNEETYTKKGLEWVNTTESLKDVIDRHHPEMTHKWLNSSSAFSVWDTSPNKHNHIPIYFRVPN
Test: Alpha-dioxygenase activity assay (oxygen consumption, TON)
Type: biochemical
Conditions: fatty acid 100 µM, enzyme 6 ppm, 50 mM HEPES pH 9.0, 37°C; initial rate of oxygen consumption / enzyme concentration
Source text: Pisum sativum αDOX (SEQ ID NO: 4) is a fatty acid alpha-dioxygenase that converts fatty acids into the corresponding 2-hydroperoxy fatty acids and is included as an example of the present invention. A codon optimized gene (SEQ ID NO: 254) encoding for an alpha-dioxygenase variant (SEQ ID NO: 255), including an N-terminal amino acid sequence containing a His-tag was designed and synthesized by Genscript. After gene synthesis, the protein was expressed and purified. In brief, the complete synthetic gene sequence was subcloned into a pET30a vector using the NdeI/HindIII cloning sites. For heterologous expression, Escherichia coli BL21 (DE3) cells were transformed with the recombinant plasmid and a single colony was inoculated into LB medium containing kanamycin (50 mg/L). A pre-starter culture was then inoculated into flasks containing Magic Media (Thermo Fisher, Catalog # K6803) supplemented with kanamycin (50 mg/L) and incubated at 16 °C for 72 h. At an OD600nm = 0.5 - 1.0, 5-aminolevulinic acid (final concentration 0.5 mM) was added. Cells were harvested by centrifugation at 5000 rpm and 4°C and the pellet was lysed using a bacterial cell lysis buffer (B-PER - Themo Fisher, Waltham, MA). After centrifugation, the supernatant was collected, and the protein was purified by one-step purification using HisPur™ Ni-NTA Spin Columns (Thermo Scientific, Catalog # 88226) and standard protocols known in the art. The protein was concentrated using a 10 kDa MW cutoff Amicon Ultra centrifugal filter unit (Millipore Sigma, Catalog# UFC901024), followed by desalting using a disposable PD-10 desalting column (GE Healthcare Life Sciences, Catalog# 17085101) and a buffer containing 50 mM Tris-HCl, 500 mM NaCl, and 10% Glycerol at pH 8.0. […]
Reactions with alpha-dioxygenases were performed as follows. […] The reaction was incubated for up to 10 minutes at 37°C with 200 rpm agitation and the conversion was monitored using an oxygen sensor. The TON (in s-1) were calculated as the ratio between the initial rate of oxygen consumption (in µM/s) and the concentration of enzyme (in µM). […]

## CCCCCCCC/C=C\CCCCCCCC(=O)O [Oleic Acid]
  Oleic Acid, TON: 1.40 s⁻¹

## CCCCCCCCCCCCCCCC(=O)O [Palmitic Acid]
  Palmitic Acid, TON: 1.92 s⁻¹

## CCCCCCCCCCCCCCCCCC(=O)O [Stearic Acid]
  Stearic Acid, TON: 0.80 s⁻¹
